Measurements from paper PMC7725785, “TRIB3 promotes MYC-associated lymphoma development through suppression of UBE3B-mediated MYC degradation” (Nature Communications, 2020).
Where a SMILES comes first, the peptide text is derived from it. [ ]: non-standard residue; d: D form.

Tests used:
[1] = system: MYC polyubiquitination by UBE3B; experiment: In vitro ubiquitination assay of MYC (UBE3B, UBCH3); type: biochemical; conditions: result in words
Method: In vitro ubiquitination was performed according to the protocol provided with the Ubiquitination Kit (UW9920, BioMol) with some modifications. Briefly, MYC-His, UBE3B-His, UBE3B-(R346Q)-His, UBE3B-(C1036A)-His, and UBE3B-C-His were expressed in free-style 293 cells and purified by a Ni2+-NTA resin (GE). The assays were carried out at 37 °C in a 50-μl reaction mixture containing 20 U/ml inorganic pyrophosphatase (Sigma Aldrich), 5 mM dithiothreitol, 5 mM Mg-ATP, 100 nM E1, […], […], […], and […]. […] To obtain accurate results, the PAGE gel was run for a relatively long time until protein bands smaller than 40 kDa ran off the bottom line of the gel as judged by the protein molecular weight marker. Then, the protein was transferred to a polyvinylidene difluoride membrane (PVDF). To reduce the background noise, an anti-MYC antibody (Cell Signaling Technology, 1:1000) was used to detect MYC polyubiquitination via western blot analysis instead of the HRP-Streptavidin detection system recommended by the kit for the detection of biotinylated ubiquitin.

TRIB3 protein = target: T1, TRIB3 protein (Homo sapiens, UniProt Q96RU7); experiment: SPR kinetic interaction of α-helical peptides (CM1-CM4) with TRIB3; type: binding
T1 construct: GST; purchased Sinobiological Inc. 10731-H09B
T1 sequence (Q96RU7 1-358): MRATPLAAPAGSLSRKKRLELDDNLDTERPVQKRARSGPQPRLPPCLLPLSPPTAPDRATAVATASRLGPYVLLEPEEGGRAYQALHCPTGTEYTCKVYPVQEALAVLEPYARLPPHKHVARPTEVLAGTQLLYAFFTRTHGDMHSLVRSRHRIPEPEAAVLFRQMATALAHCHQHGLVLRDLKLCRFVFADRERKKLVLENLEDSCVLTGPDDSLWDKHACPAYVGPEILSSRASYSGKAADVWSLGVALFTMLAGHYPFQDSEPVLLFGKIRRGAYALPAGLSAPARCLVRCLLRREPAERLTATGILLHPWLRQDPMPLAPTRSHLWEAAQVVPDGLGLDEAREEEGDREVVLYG
Method: (§1) Binding kinetics between MYC and UBE3B, TRIB3 and the indicated α helical peptides, MAX and the indicated α helical peptides, or MYC and MAX were analyzed using a BIAcore T200 instrument (GE Healthcare, CA, USA) as described previously. Briefly, binding reactions were performed in HBS-EP buffer (GE Healthcare) at pH 7.4. TRIB3/MYC/MAX protein was coated on the flow cell of a CM5 sensor chip by direct immobilization. Another flow cell, not coated with an immobilized protein, was used to evaluate nonspecific binding. The binding analyses were performed at a flow rate of 25 μl/min at 25 °C. A total of 0–200 nM peptide or 0–500 nM TRIB3 protein was passed over the surface of the sensor chip. The association rate constant (Ka) and the dissociation rate constant (Kd) were calculated according to the BIA evaluation software. The dissociation constant (KD) was determined by Kd/Ka.

MAX protein = experiment: SPR kinetic interaction of α-helical peptides (CM1-CM4) with MAX; type: binding; conditions: result in words
Method: as §1

TRIB3 and MYC = experiment: SPR kinetic interaction of TRIB3 and MYC proteins with or without CM4; type: binding; conditions: in vitro, result in words
Method: as §1

MYC and MAX = experiment: Duolink PLA of MYC and MAX colocalization in Raji cells; type: cell-based, human; conditions: peptide 4 µM 12 hr, MG132 20 μM 6 hr, result in words
Method: A total of 1 × 10^6 cells were seeded overnight in a six-well plate. The next day, cells were collected, fixed in 4% paraformaldehyde solution, permeabilized with 0.5% Triton-X100, blocked with Duolink® Blocking Solution, and probed with antibodies directed against MYC (R&D, NB600-302, 1:100), TRIB3 (Novus, H00057761-M03, 1:100), UBE3B (Invitrogen, PA5-59390, 1:100), and MAX (Cell Signaling Technology, #4739, 1:100). The cells were then treated with the Duolink In Situ Red Starter Mouse/Rabbit kit (Sigma Aldrich, DUO92101-1KT) according to the manufacturer’s instructions. Images were captured with an OLYMPUS confocal microscope.

MYC and UBE3B = experiment: In vitro coimmunoprecipitation of purified MYC, UBE3B and TRIB3 with or without CM4; type: binding; conditions: purified His-MYC, His-UBE3B and GST-TRIB3 with or without CM4; result in words
Method: Co-IP experiments were performed as described in the section of immunoprecipitation.

MAX and MYC = experiment: SPR kinetic interaction of MAX and MYC proteins with indicated peptides (CM1-CM4); type: binding; conditions: result in words
Method: as §1

SMILES: CC(C)C[C@@H](NC(=O)[C@@H](CCC(N)=O)NC(=O)[C@@H](CCC(=O)O)NC(=O)[C@@H](CC(C)C)NC(=O)[C@@H](CCCCN)NC(=O)[C@@H](Cc1c[nH]cn1)NC(=O)[C@@H](CCCCN)NC(=O)[C@@H](CC(C)C)NC(=O)[C@@H](CCC(N)=O)NC(=O)[C@@H](CCC(=O)O)NC(=O)[C@@H](CCCNC(=N)N)NC(=O)[C@@H](CCCNC(=N)N)NC(=O)[C@H](N)CCCCN)C(=O)N[C@H](CCCNC(=N)N)C(=O)O [CM4] (H-[dK][dR][dR][dE][dQ][dL][dK][dH][dK][dL][dE][dQ][dL][dR]-OH; N-terminus and C-terminus assumed)
- polyubiquitination of MYC in vitro [1]: restored the polyubiquitination of MYC
- Kd (TRIB3 protein; BIAcore T200, HBS-EP pH 7.4, 25 °C, printed in Fig. 6a): 76.4 nM
- kon (TRIB3 protein; BIAcore T200, HBS-EP pH 7.4, 25 °C, printed in Fig. 6a, read-out: ka): 1.01e+06 M⁻¹ s⁻¹
- binding affinity for TRIB3 (TRIB3 protein; result in words): high binding affinity
- ability to bind MAX (MAX protein): not
- effect on the binding affinity of TRIB3 and MYC (TRIB3 and MYC): decreased the binding affinity of TRIB3 and MYC
- colocalization of MYC and MAX in MG132-treated Raji cells (MYC and MAX): did not affect the colocalization of MYC and MAX
- binding of MYC and UBE3B in vitro (MYC and UBE3B): increased the binding of MYC and UBE3B
- effect on the binding of MYC and MAX (MAX and MYC): not
